Laboratory results from US6946480B2, “Glutaminyl based DPIV inhibitors” (priority 2002, dated 2005).
“Also recorded” adds a separate entry of the source.

What was measured:
[1] = In vivo inactivation (degradation) after oral administration to Wistar rats, LC/MS; details: LC/MS of plasma
Protocol: Glutaminyl thiazolidine was administered to Wistar rats orally as described in example 9.
After application of placebo or glutaminyl thiazolidine, arterial blood samples were taken at 2.5, 5, 7.5, 10, 15, 20, 40, 60 and 120 min from the carotid catheter of the conscious unrestrained rats to determine the formation of degradation products of glutaminyl thiazolidine.
For analysis, simple solid phase extraction procedure on C18 cartridges was used to isolate the compounds of interest from the plasma. The extracts were analysed using reversed-phase liquid chromatography on Lichrospher 60 RP Select B column hyphenated with tandem mass spectrometry operating in the APCl positive mode. An internal standard method was used for quantification.

[2] = Plasma stability (half-life of inhibitory potency in human plasma); assay type: in vitro ADME
Protocol: In order to investigate the stability of glutaminyl pyrrolidine or glutaminyl thiazolidine in human plasma, the activity of DPIV in plasma was determined at a defined time. The average DPIV activity in human plasma was determined as 43.69 U/ml. In the working solution, the plasma was diluted in 0.9% NaCl to fix the DPIV activity level at 25 U/ml.
Plasma and glutaminyl pyrrolidine or glutaminyl thiazolidine in different concentrations (5*10^−5, 2.5*10^−5, 1.25*10^−5M in plasma) were incubated at 37° C. At defined time points samples were taken using a pipette roboter (Gilson 215, Liquid handler, Gilson) and transferred in a microtiter plate containing 5*10^−5M glycylprolylaminomethylcoumarine in 0.9% NaCl+015% Brij per well. After 6 min the reaction was stopped by addition of isoleucylthiazolidine (5*10^−5M in 0.9% NaCl solution).
Fluorescence measurement was performed against 0.9% NaCl in plasma (reference standard) using a plate reader (HTS7000plus, Applied Biosystems, Weiterstadt, Germany). The half-life of the inhibitory potency of glutaminyl pyrrolidine or glutaminyl thiazolidine was calculated by plotting the enzyme activity versus reaction time.

[3] = listed as Glutaminyl thiazolidine

SMILES: NC(=O)CCC(N)C(=O)N1CCSC1 (stereo not drawn) [glutaminyl thiazolidine]
- degradation in vivo [1]: a degradation of the compound was found
- degradation product found in vivo [1]: pyroglutaminyl thiazolidine; also recorded: pyroglutamyl thiazolidine
- degradation in vivo [1, 3]: degraded
- degradation product found in vivo [1, 3]: pyroglutaminyl thiazolidine
- half-life of the inhibitory potency in human plasma ([2]; 37° C., 5*10^−5, 2.5*10^−5, 1.25*10^−5M): no half-time could be determined
- stability in human plasma ([2]; over 22 hours): stable in human plasma over 22 hours
